Series [1] can be described thus: Relative toxicities of MOH and MOP in mice. Also on record: species or system Balb C nu/nu mice. The note with it: mouse, in vivo, ip. The procedure: Prior to investigating the in vivo antitumor activity of MOP in combination with the L6-AP conjugate the relative toxicities of the prodrug and its released active derivative, MOH, were determined in Balb C nu/nu mice. […] Total amounts of up to 40 mg/kg of MOH and 100 mg/kg of MOP were well tolerated if given in 4 equal doses over a 25 day period.

The test system of series [2] is H2981 tumor cells. The note with it: at 10 µM, H2981 cells.
The test system of series [3] is calf intestinal or human placental AP. Put plainly: Reactivity of MOP with AP (HPLC). Type of series: biochemical. The note with it: MOP 1 mM, AP 1 µg/ml, 100 mM Tris pH 7.2, room temperature. The protocol: The MOP prodrug was then tested for its reactivity with AP. […] The course of the reaction was monitored by HPLC using a C-18 column (4.6 x 150 mm) and the following conditions: detection at 280 nm; 30-95% methanol in acetate buffer (100 mM, pH 5.2) over 8 min, re-equilibration after 15 min; 0.8 ml/min flow rate. Under these conditions, MMC eluted at 7.0 min, MOH eluted at 8.5 min, and MOP eluted 4.0 min. […] HPLC served to confirm that the corresponding alcohol, MOH, was formed. Under the reaction conditions used, the half life for hydrolysis of MOP was about 10 min and the reaction went to completion within 40 min.

The test system of a further series is H2981 tumor. In words: In vivo antitumor effect, conjugate/mitomycin prodrug and MOP/EP combinations, s.c. H2981 tumor. Also on record: species or system nude Balb C nu/nu female mice. The procedure: Therapy studies were then performed on nude Balb C nu/nu female mice (6 mice per treatment group) (4-6 wk old) obtained from Life Sciences (St. Petersburg, Fla.) that had been implanted (s.c., right hind flank) with a H2981 tumor obtained from in vivo sourcing. The experiments were run when the tumors reached approximately 100 mm^3 in volume. The L6-AP and 1F5-AP conjugates (0.1 ml containing 250 µg antibody in PBS) were each administered (i.p.) 18-24 h prior to treatment with MOP (0.2 ml containing 0.6 mg MOP in H2O). Tumor growth was compared to that observed in untreated mice and in mice treated with maximum tolerated doses of MOP (0.2 ml containing 0.6 mg MOP in H2O) or MOH (0.2 ml containing 0.2 mg MOH in H2O) alone.
The prodrugs, EP and MOP, were prepared as described in Examples 1 and 2, respectively. Preparation of the L6-AP and 1F5-AP immunoconjugates is described in Example 1. The in vivo studies on nude mice were carried out as described in Examples 1 and 2 above. Thus, nude mice that had been implanted with a H2981 tumor were pre-exposed to the L6-AP or 1F5-AP conjugate 18-24 h prior to treatment with a combination of MOP/EP (0.2 ml containing 1 mg EP and 0.3 mg MOP in H2O). Tumor growth was compared to that observed in untreated mice and in mice treated with the MOP/EP combination alone.

The test system of series [4] is H2981 tumor cells. In words: 3H-thymidine uptake assay on H2981 cells, PVA conjugates with APO. Type of series: cell-based. The note with it: Homo sapiens; H2981 cells untreated with any conjugate. The procedure: The in vitro cytotoxic effect of the antibody-PVA/ adriamycin prodrug combination of the invention toward H2981 tumor cells was measured using the ^3H-thymidine uptake assay described in Examples 1 and 2 above. Briefly, the H2981 tumor cells were plated into 96-well microtiter plates in IMDM (10,000 cells/well) and were allowed to attached for 18 h at 37°C. The antibody-PVA conjugates, L6-PVA or 1F5-PVA, were then added at a concentration of 10 µg/ml of antibody and the plates were incubated for 30 min at 4°C. The wells were then washed four times with IMDM and APO was added at varying concentrations in IMDM. After two h, the wells were again washed, IMDM was added and the cells were left for 18 h at 37°C. At that point, ^3H-thymidine was added (1 µCi per well) and after 6 h, the plates were frozen at -70°C to detach the cells. After thawing, the cells were harvested onto glass fiber filters. The incorporation of ^3H-thymidine was measured in a Beckman 3801 scintillation counter and compared to cells treated with APO or adriamycin (ADM) alone.

The next series has as its system Daudi cells. In words: 3H-thymidine assay on Daudi cells, PVA conjugates with APO. Type of series: cell-based. The note with it: Figure 25. The procedure: The ^3H-thymidine assay was performed essentially as described in the examples above with slight modifications due to the fact that the Daudi cells are non-adherent. Thus, approximately 250,000 Daudi cells in IMDM were plated into each well of a 96-well microtiter plate and the antibody-enzyme conjugate added. The reaction mixture was incubated at 4°C for 30 min. Unbound antibody-enzyme conjugate was removed by centrifuging at 500 x g for 5 min and removing the supernatant. The cells were resuspended in IMDM and the washing procedure was repeated three times to remove all unbound conjugate. APO in IMDM was then added for 2 h and washed once as described above. The remainder of the assay was performed as described in the examples above.

Where [5] appears, read: by day 63, mitomycin derivatives (Table 3).

Broadly, the LD50 is the dose at which mortality reaches 50%. One may read the IC50 as the concentration needed to halve the response being measured.

Regarding `CO[C@@]12[C@H](COC(N)=O)C3=C(C(=O)C(C)=C(NCCOP(=O)(O)O)C3=O)N1C[C@@H]1N[C@@H]12` [MOP, 7-(2'-aminoethyl phosphate)mitomycin], the LD50 in series [1] (two equal doses spaced 4 days apart) was found to be 90 mg/kg. The MTD in series [1] (given in 4 equal doses over a 25 day period, read-out: total amounts well tolerated) is no more than 100 mg/kg. Besides, the cell kill with H2981 tumor cells [2] stood at 5%. In addition, the “time for the reaction to go to completion” value in series [3] is given as no more than 40 min. In addition, the “antitumor activity in vivo” value in the series on H2981 tumor (Figures 18 and 19, conjugates 18-24 h prior to prodrug) is “significant antitumor activities in vivo”. Also, the “time required to reach an average tumor volume of 750 mm^3” value in the series on H2981 tumor (H2981 tumor, maximum tolerated doses) came to 63 days. Also, in the series with H2981 tumor (setting [5]), the “TUMOR RESPONSES PROGRESSION” value is on record as 4/5 and the “TUMOR RESPONSES STABLE” value is recorded as 1/5.

Turning to `COc1cccc2c1C(=O)c1c(O)c3c(c(O)c1C2=O)C[C@@](O)(C(=O)CO)C[C@@H]3O[C@H]1C[C@H](N)[C@H](O)[C@H](C)O1` [adriamycin, reference compound], in the series on H2981 tumor cells [4], the IC50 came out at 38 nM. Further, the “cytotoxicity on Daudi cells” value with Daudi cells is recorded as “significantly more toxic than APO”.
